Measured values reported in patent publication US20230218624A1 (Urovant Sciences GmbH, priority 2017, published 2023).

Columns and labels:
β2-AR = β2-AR (Homo sapiens, UniProt P07550); assay: Competition binding assay, membranes with recombinant β2-AR
[1] = tested on: males and females with OAB; assay: Phase 3 12-week placebo controlled study in OAB; format: in vivo, human; conditions: Week 12
Method: After eight weeks, the dose could be increased to 100 mg once daily as clinically indicated.

healthy subjects = assay: Phase 1 safety data; format: in vivo
Method: Exposure, and therefore risk of adverse-events can be further reduced with a 50 mg dose.

[2] = Single rising oral dose Phase 1 pharmacokinetics; format: in vivo, human
Method: The steady state AUC geometric mean accumulation ratios were ˜2 in young male subjects and ˜2.8 in elderly subjects (male and female).
All subjects were healthy adults. […] Systemic exposures were greater than dose proportional up to 600 mg.

men and women with OAB = assay: Phase 2b efficacy study in men and women with OAB; format: in vivo, human; conditions: for Micturitions, change from baseline in average number of micturitions, difference in LS means / Total incontinence, change from baseline in average number of episodes, difference in LS means / Urgency Episodes, change from baseline in average number of episodes, difference in LS means / Urgency incontinence, change from baseline in average number of episodes, difference in LS means / Volume voided, change from baseline in average volume per void over one diary day, difference in LS means: week 8; for Change from baseline in volume voided per micturition, difference from placebo in LS means: Week 8; for Total incontinence episodes, change from baseline Week 8, mean / Total incontinence episodes, daily number, Week 8 mean / Total incontinence episodes, difference from placebo Week 8, difference in LS means / Urgency incontinence episodes, change from baseline Week 8, mean / Urgency incontinence episodes, daily number, Week 8 mean / Urgency incontinence episodes, difference from placebo Week 8, difference in LS means: OAB wet subjects
Excerpt: Part 2 was designed to continue to assess the safety and efficacy of concomitant dosing. […] Subjects in both Part 1 and Part 2 had the option of enrolling in a 1-year extension. Participants were required to keep a voiding diary, recording the occurrence of each strong urge, total incontinence, and urge incontinence episode. Efficacy data for Part 1 and Part 2 are summarized herein.
The total number of urgency incontinence episodes must have exceeded the total number of stress incontinence episodes for all subjects.
Conversely, a dose dependent effect on urge incontinence or total incontinence was not observed.

[3] = tested on: patients with overactive bladder; assay: Phase 2 safety data, adverse events (main study and 52-week extension)
Excerpt: A placebo group was included in the main study, and a group that received tolterodine monotherapy was included in the main study and in the extension.

[4] = Relative bioequivalence of aqueous and non-aqueous tablet; format: in vivo, human; conditions: 50 mg
Excerpt: An open-label, single-dose, randomized, two-period, two-treatment, two-sequence, crossover Phase 1 study evaluated the relative bioequivalence of two types of tablets with slightly different composition: aqueous tablet (test) and non-aqueous tablet (reference).

Chain of β2-AR (P07550 whole entry): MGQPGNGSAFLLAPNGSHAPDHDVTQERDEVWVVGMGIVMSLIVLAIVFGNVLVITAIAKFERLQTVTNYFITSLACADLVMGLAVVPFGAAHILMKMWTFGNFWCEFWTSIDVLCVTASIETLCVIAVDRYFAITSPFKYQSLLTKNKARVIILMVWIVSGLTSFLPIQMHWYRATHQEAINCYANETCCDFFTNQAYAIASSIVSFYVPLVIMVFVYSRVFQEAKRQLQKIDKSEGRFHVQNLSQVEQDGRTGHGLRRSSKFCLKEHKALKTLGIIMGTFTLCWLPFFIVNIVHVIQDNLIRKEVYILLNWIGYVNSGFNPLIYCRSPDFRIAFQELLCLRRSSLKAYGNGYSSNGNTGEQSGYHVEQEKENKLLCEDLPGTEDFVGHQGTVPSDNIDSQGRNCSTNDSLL

O=C(Nc1ccc(C[C@@H]2CC[C@H]([C@H](O)c3ccccc3)N2)cc1)[C@@H]1CCc2nccc(=O)n21 [Vibegron, (6S)—N-[4-[[(2S,5R)-5-[(R)-hydroxy(phenyl)methyl]pyrrolidin-2-yl]methyl]phenyl]-4-oxo-7,8-dihydro-6H-pyrrolo[1,2-a]pyrimidine-6-carboxamide]
binding to β2-AR (β2-AR): does not bind | Micturitions, LS mean placebo adjusted change from baseline (95% CI) ([1]; 50 mg): −0.86 (−1.12, −0.60) | Total incontinence episodes, LS mean placebo adjusted change from baseline (95% CI) ([1]; 50 mg): −0.30 (−0.49, −0.12) | Urge urinary incontinence episodes, LS mean placebo adjusted change from baseline (95% CI) ([1]; 50 mg): −0.27 (−0.44, −0.10) | Urgency episodes, LS mean placebo adjusted change from baseline (95% CI) ([1]; 50 mg): −0.51 (−0.76, −0.25) | Volume voided, LS mean placebo adjusted change from baseline (95% CI) ([1]; 50 mg): 25.76 (20.02, 31.46) mL | Micturitions, LS mean placebo adjusted change from baseline (95% CI) ([1]; 100 mg): −0.81 (−1.07, −0.55) | Total incontinence episodes, LS mean placebo adjusted change from baseline (95% CI) ([1]; 100 mg): −0.43 (−0.61, −0.24) | Urge urinary incontinence episodes, LS mean placebo adjusted change from baseline (95% CI) ([1]; 100 mg): −0.39 (−0.55, −0.22) | Urgency episodes, LS mean placebo adjusted change from baseline (95% CI) ([1]; 100 mg): −0.67 (−0.93, −0.42) | Volume voided, LS mean placebo adjusted change from baseline (95% CI) ([1]; 100 mg): 22.16 (16.44, 27.89) mL | tolerability (healthy subjects; Phase 1 program, single 2 to 600 mg, multiple 25 to 400 mg): generally well tolerated | orthostatic AEs (healthy subjects; vibegron 100 mg coadministered in essential hypertension on metoprolol or amlodipine): no occurrences of orthostatic AEs | exposure increase, young Japanese vs non-Japanese young males ([2]; single dose): < 2 fold | t1/2 (harmonic mean ± pseudo SD) ([2]; single dose 50 mg, Japanese healthy young males): 64.4 ± 8.7 h | t1/2 (harmonic mean ± pseudo SD) ([2]; single dose 50 mg, elderly male and female): 92.1 ± 15.9 h | t1/2 (harmonic mean ± pseudo SD) ([2]; single dose 200 mg, healthy young males): 75.3 ± 9.1 h | t1/2 (harmonic mean ± pseudo SD) ([2]; single dose 450 mg, healthy young males): 60.0 ± 9.4 h | Micturitions, change from baseline in average number of micturitions, difference in LS means (men and women with OAB; 50 mg - Placebo): −0.64 | Total incontinence, change from baseline in average number of episodes, difference in LS means (men and women with OAB; 50 mg - Placebo): −0.60 | Urgency Episodes, change from baseline in average number of episodes, difference in LS means (men and women with OAB; 50 mg - Placebo): −0.76 | Urgency incontinence, change from baseline in average number of episodes, difference in LS means (men and women with OAB; 50 mg - Placebo): −0.72 | Volume voided, change from baseline in average volume per void over one diary day, difference in LS means (men and women with OAB; 50 mg - Placebo): 29.1 mL | Micturitions, change from baseline in average number of micturitions, difference in LS means (men and women with OAB; 100 mg - 50 mg): −0.27 | Total incontinence, change from baseline in average number of episodes, difference in LS means (men and women with OAB; 100 mg - 50 mg): 0.02 | Urgency Episodes, change from baseline in average number of episodes, difference in LS means (men and women with OAB; 100 mg - 50 mg): −0.48 | Urgency incontinence, change from baseline in average number of episodes, difference in LS means (men and women with OAB; 100 mg - 50 mg): 0.01 | Volume voided, change from baseline in average volume per void over one diary day, difference in LS means (men and women with OAB; 100 mg - 50 mg): -5.69 mL | Micturitions, change from baseline in average number of micturitions, difference in LS means (men and women with OAB; 100 mg - Placebo): −0.91 | Total incontinence, change from baseline in average number of episodes, difference in LS means (men and women with OAB; 100 mg - Placebo): −0.58 | Urgency Episodes, change from baseline in average number of episodes, difference in LS means (men and women with OAB; 100 mg - Placebo): −1.24 | Urgency incontinence, change from baseline in average number of episodes, difference in LS means (men and women with OAB; 100 mg - Placebo): −0.71 | Volume voided, change from baseline in average volume per void over one diary day, difference in LS means (men and women with OAB; 100 mg - Placebo): 23.4 mL | Micturitions, change from baseline Week 8, mean (men and women with OAB; vibegron 3 mg): −1.56 | Micturitions, daily number, Week 8 mean (men and women with OAB; vibegron 3 mg): 9.35 | Micturitions, difference from placebo Week 8, difference in LS means (men and women with OAB; vibegron 3 mg): −0.46 | Urgency episodes, change from baseline Week 8, mean (men and women with OAB; vibegron 3 mg): −1.69 | Urgency episodes, daily number, Week 8 mean (men and women with OAB; vibegron 3 mg): 4.68 | Urgency episodes, difference from placebo Week 8, difference in LS means (men and women with OAB; vibegron 3 mg): −0.18 | Change from baseline in volume voided per micturition, difference from placebo in LS means (men and women with OAB; vibegron 3 mg once daily): 15.99 mL | Total incontinence episodes, change from baseline Week 8, mean (men and women with OAB; vibegron 3 mg): −1.56 | Total incontinence episodes, daily number, Week 8 mean (men and women with OAB; vibegron 3 mg): 1.38 | Total incontinence episodes, difference from placebo Week 8, difference in LS means (men and women with OAB; vibegron 3 mg): −0.18 | Urgency incontinence episodes, change from baseline Week 8, mean (men and women with OAB; vibegron 3 mg): −1.38 | Urgency incontinence episodes, daily number, Week 8 mean (men and women with OAB; vibegron 3 mg): 1.21 | Urgency incontinence episodes, difference from placebo Week 8, difference in LS means (men and women with OAB; vibegron 3 mg): −0.28 | Micturitions, change from baseline Week 8, mean (men and women with OAB; vibegron 15 mg): −1.71 | Micturitions, daily number, Week 8 mean (men and women with OAB; vibegron 15 mg): 9.53 | Micturitions, difference from placebo Week 8, difference in LS means (men and women with OAB; vibegron 15 mg): −0.45 | Urgency episodes, change from baseline Week 8, mean (men and women with OAB; vibegron 15 mg): −2.35 | Urgency episodes, daily number, Week 8 mean (men and women with OAB; vibegron 15 mg): 4.42 | Urgency episodes, difference from placebo Week 8, difference in LS means (men and women with OAB; vibegron 15 mg): −0.67 | Change from baseline in volume voided per micturition, difference from placebo in LS means (men and women with OAB; vibegron 15 mg once daily): 28.23 mL | Total incontinence episodes, change from baseline Week 8, mean (men and women with OAB; vibegron 15 mg): −1.99 | Total incontinence episodes, daily number, Week 8 mean (men and women with OAB; vibegron 15 mg): 1.31 | Total incontinence episodes, difference from placebo Week 8, difference in LS means (men and women with OAB; vibegron 15 mg): −0.48 | Urgency incontinence episodes, change from baseline Week 8, mean (men and women with OAB; vibegron 15 mg): −1.81 | Urgency incontinence episodes, daily number, Week 8 mean (men and women with OAB; vibegron 15 mg): 1.12 | Urgency incontinence episodes, difference from placebo Week 8, difference in LS means (men and women with OAB; vibegron 15 mg): −0.57 | Micturitions, change from baseline Week 8, mean (men and women with OAB; vibegron 50 mg): −1.87 | Micturitions, daily number, Week 8 mean (men and women with OAB; vibegron 50 mg): 9.05 | Micturitions, difference from placebo Week 8, difference in LS means (men and women with OAB; vibegron 50 mg): −0.64 | Urgency episodes, change from baseline Week 8, mean (men and women with OAB; vibegron 50 mg): −2.36 | Urgency episodes, daily number, Week 8 mean (men and women with OAB; vibegron 50 mg): 3.71 | Urgency episodes, difference from placebo Week 8, difference in LS means (men and women with OAB; vibegron 50 mg): −0.76 | Change from baseline in volume voided per micturition, difference from placebo in LS means (men and women with OAB; vibegron 50 mg once daily): 29.05 mL | Total incontinence episodes, change from baseline Week 8, mean (men and women with OAB; vibegron 50 mg): −2.02 | Total incontinence episodes, daily number, Week 8 mean (men and women with OAB; vibegron 50 mg): 1.02 | Total incontinence episodes, difference from placebo Week 8, difference in LS means (men and women with OAB; vibegron 50 mg): −0.60 | Urgency incontinence episodes, change from baseline Week 8, mean (men and women with OAB; vibegron 50 mg): −1.90 | Urgency incontinence episodes, daily number, Week 8 mean (men and women with OAB; vibegron 50 mg): 0.86 | Urgency incontinence episodes, difference from placebo Week 8, difference in LS means (men and women with OAB; vibegron 50 mg): −0.72 | Micturitions, change from baseline Week 8, mean (men and women with OAB; vibegron 100 mg): −2.11 | Micturitions, daily number, Week 8 mean (men and women with OAB; vibegron 100 mg): 9.02 | Micturitions, difference from placebo Week 8, difference in LS means (men and women with OAB; vibegron 100 mg): −0.91 | Urgency episodes, change from baseline Week 8, mean (men and women with OAB; vibegron 100 mg): −2.98 | Urgency episodes, daily number, Week 8 mean (men and women with OAB; vibegron 100 mg): 4.22 | Urgency episodes, difference from placebo Week 8, difference in LS means (men and women with OAB; vibegron 100 mg): −1.24 | Change from baseline in volume voided per micturition, difference from placebo in LS means (men and women with OAB; vibegron 100 mg once daily): 23.36 mL | Total incontinence episodes, change from baseline Week 8, mean (men and women with OAB; vibegron 100 mg): −2.26 | Total incontinence episodes, daily number, Week 8 mean (men and women with OAB; vibegron 100 mg): 1.12 | Total incontinence episodes, difference from placebo Week 8, difference in LS means (men and women with OAB; vibegron 100 mg): −0.58 | Urgency incontinence episodes, change from baseline Week 8, mean (men and women with OAB; vibegron 100 mg): −2.05 | Urgency incontinence episodes, daily number, Week 8 mean (men and women with OAB; vibegron 100 mg): 0.84 | Urgency incontinence episodes, difference from placebo Week 8, difference in LS means (men and women with OAB; vibegron 100 mg): −0.71 | Accidental overdose, % subjects ([3]; 3 mg, first 12 weeks): (2.1) % | Accidental overdose, n subjects ([3]; 3 mg, first 12 weeks): 3 | Accidental overdose, % subjects ([3]; 15 mg, first 12 weeks): (4.5) % | Accidental overdose, n subjects ([3]; 15 mg, first 12 weeks): 6 | Accidental overdose, % subjects ([3]; 50 mg, first 12 weeks): (2.7) % | Accidental overdose, n subjects ([3]; 50 mg, first 12 weeks): 4 | Accidental overdose, % subjects ([3]; 100 mg, first 12 weeks): (4.2) % | Accidental overdose, n subjects ([3]; 100 mg, first 12 weeks): 11 | ≥1 AE, n subjects ([3]; 100 mg, first 12 weeks): 107 | frequency of injuries ([3]; human, in vivo): 0.9% | increased exposure (potential risk) ([3]; human, in vivo): ~2 fold | AUC0-inf GMR test to reference tablet [4]: 100.2% | Cmax GMR test to reference tablet [4]: 107.7%
